Measured values published in ChEMBL document CHEMBL3102761, “Discovery of Clinical Candidate GSK1842799 As a Selective S1P1 Receptor Agonist (Prodrug) for Multiple Sclerosis” (ACS Med Chem Lett, 2013).
Converted amounts (≈) assume the structure as drawn. The source made the active and inactive calls. The calls are words filed in the database; no cut-off is given here.

Tests used:
Homo sapiens [1] = organism: Homo sapiens; assay: Selectivity ratio for S1P3R (unknown origin) to S1P1R (unknown origin)
[2] = molecular target: T1, Sphingosine 1-phosphate receptor 1 (Homo sapiens, UniProt P21453); assay: Agonist activity at S1P1R (unknown origin) assessed as [33P] binding activity
T1 sequence (P21453 whole entry): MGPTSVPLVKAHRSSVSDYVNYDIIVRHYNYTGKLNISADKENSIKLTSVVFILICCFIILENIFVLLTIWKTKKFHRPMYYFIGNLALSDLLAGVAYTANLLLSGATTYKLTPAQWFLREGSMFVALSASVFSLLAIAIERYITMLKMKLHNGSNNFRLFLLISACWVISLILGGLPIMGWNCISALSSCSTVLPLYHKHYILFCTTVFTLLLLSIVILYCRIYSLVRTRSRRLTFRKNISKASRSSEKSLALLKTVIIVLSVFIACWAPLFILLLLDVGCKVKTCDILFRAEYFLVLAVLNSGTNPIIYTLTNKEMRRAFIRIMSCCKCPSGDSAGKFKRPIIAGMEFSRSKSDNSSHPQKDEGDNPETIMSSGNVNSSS

[3] = molecular target: T2, Sphingosine 1-phosphate receptor 3 (Homo sapiens, UniProt Q99500); assay: Agonist activity at S1P3R (unknown origin) assessed as [33P] binding activity
Target sequence in this assay (Q99500 whole entry, looked up): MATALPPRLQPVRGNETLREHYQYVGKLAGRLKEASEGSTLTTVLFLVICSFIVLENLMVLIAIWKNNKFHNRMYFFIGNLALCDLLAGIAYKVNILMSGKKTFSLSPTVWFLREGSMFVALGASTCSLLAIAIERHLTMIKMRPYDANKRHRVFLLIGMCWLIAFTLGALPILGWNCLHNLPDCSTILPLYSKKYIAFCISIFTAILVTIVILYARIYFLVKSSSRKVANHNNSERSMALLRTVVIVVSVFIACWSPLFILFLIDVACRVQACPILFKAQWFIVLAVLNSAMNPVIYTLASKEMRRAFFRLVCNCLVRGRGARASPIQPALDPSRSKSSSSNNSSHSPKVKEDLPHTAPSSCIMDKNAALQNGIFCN

Homo sapiens [4] = organism: Homo sapiens; assay: Selectivity ratio for human Sphk1 to human Sphk2
Mus musculus [5] = assay: Reduction in clinical symptoms in MOG peptide experimental autoimmune encephalitis (EAE) mouse multiple sclerosis disease model at 3 mg/kg, po qd; type: functional, organism-based; set-up: dose 3 mg/kg
Caco-2 = assay: Permeability across human Caco2 cells; type: ADME, cell-based
Liver microsome [6] = assay: Metabolic stability in rat liver microsomes; type: ADME
[7] = Aqueous solubility of the compound; type: physicochemical; details: buffer
Mus musculus [8] = assay: Induction of lymphopenia in C57BL/6 mouse at 0.1 mg/kg, po at 6 hrs post-dose relative to vehicle-treated control; type: functional, organism-based; set-up: dose 0.1 mg/kg
Plasma [9] = assay: Plasma concentration in rat assessed as phosphorylated compound at 3 mg/kg, po administered as single dose; type: ADME, organism-based; set-up: dose 3 mg/kg, route oral; details: in vivo
[10] = Cmax in cynomolgus monkey at 3.8 mg/kg, po administered as single dose; type: ADME, organism-based, Macaca fascicularis; set-up: dose 3.8 mg/kg, route oral; details: in vivo
Plasma [11] = assay: Plasma concentration in cynomolgus monkey assessed as phosphorylated compound at 3.8 mg/kg, po administered as single dose; type: ADME, organism-based, Macaca fascicularis; set-up: dose 3.8 mg/kg, route oral; details: in vivo
Plasma [12] = assay: Plasma concentration in dog assessed as phosphorylated compound at 5 mg/kg, po administered as single dose; type: ADME, organism-based, Canis lupus familiaris; set-up: dose 5 mg/kg, route oral; details: in vivo
Mus musculus [13] = assay: Induction of lymphopenia in po dosed C57BL/6 mouse measured at 6 hrs post-dose relative to vehicle-treated control; type: functional, organism-based
Cynomolgus monkey = assay: Induction of […] in po dosed cynomolgus monkey; type: functional, Macaca fascicularis
[14] = Inhibition of CYP450 (unknown origin); type: ADME; details: human
Liver microsome [15] = assay: Metabolic stability in dog liver microsomes; type: ADME, Canis lupus familiaris
Liver microsome [16] = assay: Metabolic stability in human liver microsomes; type: ADME
[17] = Metabolic stability in cynomolgus monkey liver microsomes; type: ADME, Macaca fascicularis, Microsome
[18] = molecular target: T1, Sphingosine 1-phosphate receptor 1; assay: Agonist activity at human S1P1R expressed in HEK293T cells assessed as [35S]GTPgammaS binding after 30 mins by scintillation counting; type: functional, cell-based, HEK-293T
[19] = molecular target: T2, Sphingosine 1-phosphate receptor 3; assay: Agonist activity at human S1P3R expressed in HEK293T cells assessed as [35S]GTPgammaS binding after 30 mins by scintillation counting; type: functional, cell-based, HEK-293T
Target sequence in this assay (Q99500 whole entry): as the sequence (Q99500 whole entry, looked up) above

[20] = molecular target: T3, Sphingosine 1-phosphate receptor 4 (Homo sapiens, UniProt O95977); assay: Agonist activity at human S1P4R expressed in HEK293T cells assessed as [35S]GTPgammaS binding after 30 mins by scintillation counting; type: functional, cell-based, HEK-293T
T3 sequence (O95977 whole entry): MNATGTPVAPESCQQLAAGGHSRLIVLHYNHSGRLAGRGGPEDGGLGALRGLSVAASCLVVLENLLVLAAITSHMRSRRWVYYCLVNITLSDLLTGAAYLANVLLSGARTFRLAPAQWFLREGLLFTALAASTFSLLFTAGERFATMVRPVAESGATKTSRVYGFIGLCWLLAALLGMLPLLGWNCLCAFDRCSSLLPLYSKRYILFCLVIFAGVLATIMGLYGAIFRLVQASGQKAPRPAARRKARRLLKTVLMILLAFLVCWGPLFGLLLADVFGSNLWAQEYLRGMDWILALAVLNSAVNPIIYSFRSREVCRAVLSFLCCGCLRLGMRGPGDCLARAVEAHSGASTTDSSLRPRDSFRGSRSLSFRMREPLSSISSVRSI

Mus musculus [21] = assay: Induction of lymphopenia in C57BL/6 mouse at 10 mg/kg, po at 6 hrs post-dose
[22] = molecular target: Sphingosine 1-phosphate receptor 5 (Homo sapiens, UniProt Q9H228); assay: Agonist activity at human S1P5R expressed in HEK293T cells assessed as [35S]GTPgammaS binding after 30 mins by scintillation counting; type: functional, cell-based, HEK-293T
Sequence of Sphingosine 1-phosphate receptor 5 (Q9H228 whole entry): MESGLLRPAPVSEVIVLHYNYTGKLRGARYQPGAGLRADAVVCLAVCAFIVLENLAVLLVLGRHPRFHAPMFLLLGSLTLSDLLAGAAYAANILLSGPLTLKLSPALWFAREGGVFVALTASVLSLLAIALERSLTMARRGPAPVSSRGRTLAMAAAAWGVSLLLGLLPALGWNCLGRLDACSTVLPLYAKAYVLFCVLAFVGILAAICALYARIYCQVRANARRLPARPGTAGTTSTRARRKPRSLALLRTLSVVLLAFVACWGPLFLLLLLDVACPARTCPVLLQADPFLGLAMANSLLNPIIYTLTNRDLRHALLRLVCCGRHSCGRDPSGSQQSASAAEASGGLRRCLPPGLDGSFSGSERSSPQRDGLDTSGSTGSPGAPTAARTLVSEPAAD

Homo sapiens [23] = organism: Homo sapiens; assay: Selectivity ratio of EC50 for S1P3R (unknown origin) to EC50 for S1P1R (unknown origin)

| SMILES | Selectivity ratio (Homo sapiens [1]) | Activity [2] | Activity [3] | further results |
| --- | --- | --- | --- | --- |
| N[C@@H](COP(=O)(O)O)c1nc(-c2ccc(OCc3ccc(-c4ccccc4)cc3)c(C(F)(F)F)c2)c[nH]1 | 2170 | 0.3 nM | 0.65 µM |  |
| CCCCCCCCOc1ccc(-c2nnc([C@@](C)(N)COP(=O)(O)O)o2)cc1C(F)(F)F | > 359 | 27.8 nM | > 10 µM |  |
| C[C@](N)(COP(=O)(O)O)c1nc(-c2ccc(OCc3ccc(-c4ccccc4)cc3)c(C(F)(F)F)c2)c[nH]1 | 8860 | 0.83 nM | 7.35 µM |  |
| C[C@](N)(COP(=O)(O)O)c1ncc(-c2ccc(OCc3ccc(-c4ccccc4)cc3)c(C(F)(F)F)c2)o1 | > 8000 | 1.1 nM | > 10 µM |  |
| C[C@](N)(COP(=O)(O)O)c1ncc(-c2ccc(OCc3ccc(-c4ccccc4)cc3)c(C(F)(F)F)c2)s1 | 1190 | 0.73 nM | 0.867 µM |  |
| Cc1oc([C@@](C)(N)COP(=O)(O)O)nc1-c1ccc(OCc2ccc(-c3ccccc3)cc2)c(C(F)(F)F)c1 | > 5000 | 2.1 nM | > 10 µM |  |
| CCCCCCCCOc1ccc(-c2noc([C@@](C)(N)COP(=O)(O)O)n2)cc1C(F)(F)F | > 5260 | 1.9 nM | > 10 µM |  |
| CCCCCCCCc1ccc(CCC(N)(CO)CO)cc1 |  |  |  | Selectivity ratio (Homo sapiens [4]): 30; Activity (Mus musculus [5]): Active |
| CCCCCCCCOc1ccc(-c2cc([C@@](C)(N)COP(=O)(O)O)[nH]n2)cc1C(F)(F)F | > 12000 | 0.83 nM | > 10 µM |  |
| CCCCCCCCOc1ccc(-c2cnc([C@@](C)(N)COP(=O)(O)O)[nH]2)cc1C(F)(F)F | 3340 | 1.46 nM | 4.87 µM |  |
| CCCCCCCCOc1ccc(-c2cc([C@@](C)(N)COP(=O)(O)O)on2)cc1C(F)(F)F | 1210 | 0.14 nM | 0.17 µM |  |
| CCCCCCCCOc1ccc(-c2nnc([C@@](C)(N)CO)s2)cc1C(F)(F)F |  |  |  | permeability (Caco-2): permeable; Stability (Liver microsome [6]): Stable; solubility [7]: soluble; Activity (Mus musculus [8]): Active; Cp (Plasma [9]): 10 ng/mL; Cmax [10]: 50.9 ng/mL; Cp (Plasma [11]): 10 ng/mL; Cp (Plasma [12]): 10 ng/mL; Activity (Mus musculus [13]): Dose-dependent effect; EC90 (Cynomolgus monkey): 0.0162 µg/mL (≈ 0.0375 µM); inhibition (INH) [14]: Not Active; Activity (Mus musculus [5]): Active; Stability (Liver microsome [15]): Stable; Stability (Liver microsome [16]): Stable; Stability [17]: Stable |
| C[C@](N)(COP(=O)(O)O)c1nc(-c2ccc(OCc3ccc(-c4ccccc4)cc3)c(C(F)(F)F)c2)cs1 | > 6250 | 1.6 nM | > 10 µM |  |
| C[C@](N)(COP(=O)(O)O)c1nnc(-c2ccc(OCc3ccc(-c4ccccc4)cc3)c(C(F)(F)F)c2)s1 | 2540 | 1.77 nM | 4.5 µM |  |
| Cc1nc([C@@](C)(N)COP(=O)(O)O)[nH]c1-c1ccc(OCc2ccc(-c3ccccc3)cc2)c(C(F)(F)F)c1 | 11900 | 0.65 nM | 7.67 µM |  |
| CCCCCCCCCCCCC/C=C/[C@@H](O)[C@@H](N)COP(=O)(O)O |  |  |  | EC50 [18]: 4.25 nM; EC50 [19]: 3.94 nM; EC50 [20]: 13 nM |
| CCCCCCCCOc1ccc(-c2cnc([C@@](C)(N)COP(=O)(O)O)s2)cc1C(F)(F)F | 1670 | 0.18 nM | 0.3 µM | EC50 [18]: 0.44 nM; Activity (Mus musculus [21]): 98%; EC50 [22]: 2 nM; EC50 [19]: > 3000 nM; EC50 [20]: 3.6 nM; Ratio EC50 (Homo sapiens [23]): > 6800 |
| CCCCCCCCOc1ccc(-c2cnc([C@@](C)(N)CO)s2)cc1C(F)(F)F |  |  |  | permeability (Caco-2): permeable; Stability (Liver microsome [6]): Stable; solubility [7]: soluble; Activity (Mus musculus [8]): Active; Activity (Mus musculus [13]): Dose-dependent effect; inhibition (INH) [14]: Not Active; Activity (Mus musculus [5]): Active; Stability (Liver microsome [15]): Stable; Stability [17]: Stable |
| NC(CO)(COP(=O)(O)O)c1nc(-c2ccc(OCc3ccc(-c4ccccc4)cc3)c(C(F)(F)F)c2)c[nH]1 (centres undefined) | > 4350 | 2.3 nM | > 10 µM |  |
| CCCCCCCCOc1ccc(-c2nnc([C@@](C)(N)COP(=O)(O)O)s2)cc1C(F)(F)F | 3290 | 0.52 nM | 1.9 µM | EC50 [18]: 0.26 nM; Activity (Mus musculus [21]): 119%; EC50 [22]: 0.66 nM; EC50 [19]: > 3000 nM; EC50 [20]: 4.57 nM; Ratio EC50 (Homo sapiens [23]): > 11500 |
